“Also recorded” adds a separate entry of the source.
How the values were obtained:
[1] = Contact angle on paraffin wax, direct or primed surface; type: physicochemical; details: paraffin wax primed with CA-1G 3 mg/mL in water and dried, then pure water drops
Description: For bar 1601, the solvent was pure water. […] The mixture corresponding to bar 1603 was the same as that of bar 1602 but also included 3 mg/mL of CA-1G. For bar 1604, a mixture of CA-1G at a concentration of 3 mg/mL in water was first deposited on the surface of the paraffin wax and then allowed to dry in order to prime the surface. Afterward, the contact angle of water on the primed surface was determined. For bar 1605, a mixture of CA-1G at a concentration of 3 mg/mL in water was first deposited on the surface of the paraffin wax and then allowed to dry in order to prime the surface. Afterward, the contact angle of a mixture of SA-1G and SA-Na at a mass ratio of 95:5 dispersed in water at a concentration of 45 mg/mL on the primed surface was determined.

finger limes = assay: Average daily mass loss rate of coated finger limes; details: coating agent 10 mg/mL in ethanol, 23-27° C., humidity 40-55%, untreated 5.3%
Text: As used herein, the “mass loss rate” refers to the rate at which the product loses mass (e.g. by releasing water and other volatile compounds). The mass loss rate is typically expressed as a percentage of the original mass per unit time (e.g. percent per day).
FIG. 1 is a graph showing average daily mass loss rates for finger limes coated with various mixtures of PA-2G and PA-1G measured over the course of several days. Each bar in the graph represents average daily mass loss rates for a group of 24 finger limes. The finger limes corresponding to bar 102 were untreated. The finger limes corresponding to bar 104 were coated with a coating agent that was substantially pure PA-1G. The finger limes corresponding to bar 106 were coated with a coating agent that was about 75% PA-1G and 25% PA-2G by mass. The finger limes corresponding to bar 108 were coated with a coating agent that was about 50% PA-1G and 50% PA-2G by mass. The finger limes corresponding to bar 110 were coated with a coating agent that was about 25% PA-1G and 75% PA-2G by mass. The finger limes corresponding to bar 112 were coated with a coating agent that was substantially pure PA-2G. The coating agents were each dissolved in ethanol at a concentration of 10 mg/mL to form solutions, and the solutions were applied to the surface of the corresponding finger limes to form the coatings. […]

avocados = assay: Skin damage of treated avocados (photograph); details: 5 mg/mL in water, no long chain fatty acid esters/salts (FIG. 5)
Text: Medium chain fatty acids (e.g., having a carbon chain length in a range of 7 to 13) and/or salts or esters thereof can also be used as coating agents to form coatings over produce or other plant matter or agricultural products using the methods described above.
[…] […] Prior to treatment, the avocado skin was virtually entirely green (not shown).

| SMILES | average daily mass loss rate (finger limes) [% per day] | other results |
| --- | --- | --- |
| CCCCCCCCCC(=O)OCC(O)CO (stereo not shown) [CA-1G, 2,3-dihydroxypropan-1-yl decanoate] | – | average contact angle of water on primed surface [1]: 24 ° |
| CCCCCCCCCCCCCCCC(=O)OCC(O)CO (stereo not shown) [PA-1G, 2,3-dihydroxypropan-1-yl palmitate] | 4.3 | – |
| CCCCCCCCCCCCCCCC(=O)OC(CO)CO [PA-2G, 1,3-dihydroxypropan-2-yl palmitate] | 3.7 | – |
| CCCCCCCCCCC(=O)OCC(O)CO (stereo not shown) [UA-1G, 2,3-dihydroxypropan-1-yl undecanoate] | – | skin damage of avocados after treatment (avocados): high density of black discolored regions; also recorded: extensive skin damage |

— patent US20210337817A1, “COMPOUNDS AND FORMULATIONS FOR PROTECTIVE COATINGS” (Apeel Technology, Inc., priority 2018, published 2021)
